Test results: patent publication US20190202836A1, “SELECTIVE DUAL INHIBITORS OF PI3 DELTA AND GAMMA PROTEIN KINASES” (Rhizen Pharmaceuticals SA, priority 2014, published 2019)

Tests used:
[1] = test system: T-lymphoma (MOLT-4, Jurkat, CCRF-CEM, Hut-78 and HuT-102) cells; assay: Assay 2: In vitro cell proliferation assay in leukemic cell lines (MTT); assay type: cell-based
Method: Growth inhibition assays were carried out using 10% FBS supplemented media. Cells were seeded at a concentration of 5000-20,000 cells/well in a 96-well plate. Test compounds at a concentration ranging from 0.01 to 10000 nM were added after 24 hours. Growth was assessed using the 3-[4,5-dimethylthiazol-2-yl]-2,5-diphenyltetrazolium bromide (MTT) dye reduction test at 0 hour (prior to the addition of the test compound) and 72 hours after the addition of test compound. Absorbance was read on a Fluostar Optima (BMG Labtech, Germany) at a wavelength of 450 nm. Data were analysed using GraphPad Prism and percent inhibition due to the test compound compared to the control was calculated accordingly.

[2] = test system: human whole blood B-cell proliferation (CD19); assay: Assay 6B: Inhibition of LPS induced CD19 in human whole blood; assay type: cell-based; settings: diluted human whole blood, 72 hours, read-out: EC50, inhibition of LPS-induced human whole blood B-cell proliferation (CD19 expression)
Method: (§1) The effect of Compound A1 on modulating B-cell receptor (BCR)-activated proliferation of human or mouse B-lymphocytes was determined. CD19 is a protein present on B cells from the earliest recognizable B-lineage cells during development to B-cell blasts but is however lost on maturation to plasma cells. LPS is an endotoxin and a major component of environmental microbes with a potent mitogenic activity on B-cells via the […].
Diluted human whole blood was treated with DMSO or desired concentrations of Compound A1. Samples were induced with LPS 15 minutes after addition of compound and incubated for 72 hours at 37° C. and 5% CO2. Cells positive for CD45 and CD19 were determined by flow cytometry and data are expressed as percentage CD19 positive cells in the total population.

[3] = test system: mouse whole blood B-cell proliferation (CD45R); assay: Assay 6B: Inhibition of LPS induced CD45R in mouse whole blood; assay type: cell-based; settings: diluted mouse whole blood, 72 hours, read-out: EC50, inhibition of LPS-induced mouse whole blood B-cell proliferation (CD45R expression)
Method: as §1
Briefly, diluted mouse whole blood was treated with of DMSO or desired concentrations of Compound A1. Samples were induced with LPS 15 minutes after compound addition, and incubated for 72 hours at 37° C. and 5% CO2. Cells positive for CD45 and CD45R were determined by flow cytometry. Data are expressed as percentage CD45R positive cells in the total population.

[4] = test system: pAKT in isolated mouse splenocytes; assay: Assay 6C: Inhibition of AKT phosphorylation in isolated mouse splenocytes; assay type: cell-based; settings: Splenocyte, 0.5 h, LPS 20 μg/mL, 30 minutes, ELISA, read-out: EC50, reduction in phosphorylation of AKT
Method: The PI3K pathway is regulated downstream by AKT, a serine-threonine kinase that modulates several oncogenic processes such as cell proliferation, growth, and survival. Because the spleen is a repertoire for vast quantities of B- and T-lymphocytes, inhibition of LPS-induced AKT phosphorylation was determined ex vivo using isolated mouse splenocytes. Cells were plated and incubated with a desired concentration of Compound A1 for 15 minutes followed by induction with LPS (20 μg/mL) for 30 minutes. Following induction, cells were lysed and pAKT was determined by ELISA using pAKT^S473 capture/detection antibody pair and anti-mouse-HRP secondary antibody. Blank subtracted absorbance values were obtained to calculate percent inhibition of pAKT in test samples.

male Balb/c mice = assay: Assay 13: Imiquimod induced plaque psoriasis in Balb/c mice model; assay type: in vivo; settings: imiquimod induced psoriasis, 3, 10, 30 mg/kg oral, compared to the control group
Method: Imiquimod (IMQ) is a ligand for TLR7 and TLR8, originally used for the treatment of non-melanoma skin cancers. […] Animals (male Balb/c mice) were acclimatized for seven days prior to the start of the experiment. Animals were randomly distributed to various groups based on their body weights. On day 0, the back skin of the mice was shaved by topical application of hair removal cream. On day 1, mice were administered the test compound or vehicle by the oral route and after 1 hour the […] received a topical application of 62.5 mg of commercially available IMQ cream (5%; Beselna Cream; Mochida Pharmaceuticals, Tokyo, Japan) on the shaved back skin. The mice were treated with topical application of imiquimod for the next 5 consecutive days, one hour after test compound or vehicle administration. Animals were allowed to dry for one hour before returning to their cages after topical application on every day. Four hours after the final application of IMQ cream, the mice were killed and skin samples were obtained. Back skin thickness was measured using dial thickness gauge. After measuring skin thickness, skin samples were fixed in 10% neutral buffered formalin solution and embedded in paraffin. Deparaffinised sections were stained with hematoxylin-eosin (HE). Epidermal thickness was quantified by averaging the values of five independent fields per section. To score the severity of inflammation of the back skin, an objective scoring system was used based on the human clinical Psoriasis Area and Severity Index (PASI). Erythema, scaling, and thickening were scored independently on a scale from 0 to 4: 0=none; 1=slight; 2=moderate; 3=marked; and 4=very marked.

PI3Kδ = PI3Kδ (Homo sapiens, UniProt O00329); assay: Assay 4: anti-FcεR1 induced CD63 expression in basophils from human whole blood; assay type: cell-based; design: endogenous in cells; host or cells: basophils in human whole blood; settings: n=1, read-out: EC50 for FcεR1 (PI3K δ), CD63 positive basophils
Sequence of PI3Kδ (O00329 whole entry): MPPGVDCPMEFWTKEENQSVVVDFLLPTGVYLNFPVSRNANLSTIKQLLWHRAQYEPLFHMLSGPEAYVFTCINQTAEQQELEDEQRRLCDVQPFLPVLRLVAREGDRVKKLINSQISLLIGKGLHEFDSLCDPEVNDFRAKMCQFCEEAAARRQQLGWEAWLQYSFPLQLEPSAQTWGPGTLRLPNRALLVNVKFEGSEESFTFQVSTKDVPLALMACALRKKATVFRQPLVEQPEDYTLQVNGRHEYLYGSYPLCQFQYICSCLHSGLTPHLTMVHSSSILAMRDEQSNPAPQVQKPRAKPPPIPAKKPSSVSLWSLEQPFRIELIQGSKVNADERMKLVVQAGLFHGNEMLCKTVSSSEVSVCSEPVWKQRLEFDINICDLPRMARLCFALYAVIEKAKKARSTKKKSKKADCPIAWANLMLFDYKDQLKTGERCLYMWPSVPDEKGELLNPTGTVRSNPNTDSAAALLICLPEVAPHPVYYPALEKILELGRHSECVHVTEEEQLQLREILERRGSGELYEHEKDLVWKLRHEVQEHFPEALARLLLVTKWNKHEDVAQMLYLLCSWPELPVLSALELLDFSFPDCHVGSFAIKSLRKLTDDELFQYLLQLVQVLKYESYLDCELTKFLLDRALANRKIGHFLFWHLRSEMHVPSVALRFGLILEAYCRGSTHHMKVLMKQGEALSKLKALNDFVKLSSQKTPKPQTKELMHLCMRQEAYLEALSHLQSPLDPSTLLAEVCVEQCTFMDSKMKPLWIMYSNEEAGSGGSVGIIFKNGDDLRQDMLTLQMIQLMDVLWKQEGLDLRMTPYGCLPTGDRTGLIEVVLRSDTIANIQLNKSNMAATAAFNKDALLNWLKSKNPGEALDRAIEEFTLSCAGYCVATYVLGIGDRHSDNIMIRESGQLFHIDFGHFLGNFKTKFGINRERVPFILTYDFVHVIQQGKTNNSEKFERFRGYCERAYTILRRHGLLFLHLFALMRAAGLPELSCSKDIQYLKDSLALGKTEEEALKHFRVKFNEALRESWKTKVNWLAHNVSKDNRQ
Sequence of PI3Kδ (P27986 whole entry partner): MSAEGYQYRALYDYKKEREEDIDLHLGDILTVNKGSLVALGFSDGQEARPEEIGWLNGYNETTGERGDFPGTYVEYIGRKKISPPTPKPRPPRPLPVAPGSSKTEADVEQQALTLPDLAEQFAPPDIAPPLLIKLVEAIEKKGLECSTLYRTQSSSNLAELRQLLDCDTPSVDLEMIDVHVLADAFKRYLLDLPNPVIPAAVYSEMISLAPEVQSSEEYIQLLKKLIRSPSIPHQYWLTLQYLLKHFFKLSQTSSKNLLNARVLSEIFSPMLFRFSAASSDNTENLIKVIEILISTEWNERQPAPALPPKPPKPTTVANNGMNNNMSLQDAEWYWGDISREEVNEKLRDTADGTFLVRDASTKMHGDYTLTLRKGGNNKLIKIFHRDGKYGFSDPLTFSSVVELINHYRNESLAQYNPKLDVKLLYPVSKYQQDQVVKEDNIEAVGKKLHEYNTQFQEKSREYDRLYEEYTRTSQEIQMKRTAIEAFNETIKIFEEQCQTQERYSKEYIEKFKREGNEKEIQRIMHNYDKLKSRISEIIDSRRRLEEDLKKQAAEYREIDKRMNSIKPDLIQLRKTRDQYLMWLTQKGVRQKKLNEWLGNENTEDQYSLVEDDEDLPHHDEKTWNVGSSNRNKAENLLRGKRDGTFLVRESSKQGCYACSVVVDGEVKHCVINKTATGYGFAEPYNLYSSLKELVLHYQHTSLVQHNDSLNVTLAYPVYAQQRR
Method: PI3K δ and γ signaling in basophils manifested by an alteration of anti-FcεR1 or fMLP induced CD63 expression is a useful pharmacodynamic marker determined using the Flow2CAST® kit (Buhlmann Laboratories, Switzerland). The test procedure involves the following steps: • Mix the anti-coagulated blood sample by inverting the venipuncture tube several times; • Prepare fresh and pyrogen-free 3.5 ml polypropylene or polystyrene tubes suitable for Flow Cytometry measurements; • Add 49 μl of patient's whole blood to each tube; • Add 1 μl of 10% DMSO (background) or test compound (10% DMSO) to the assigned tubes and mix gently. Incubate at room temperature for 15 minutes; • Pipet 50 μl of the Stimulation buffer (background) or anti-FcεRI Ab or fMLP to each tube; • Add 100 μl of Stimulation Buffer to each tube; • Mix gently. Add 20 μl Staining Reagent (1:1 mix of FITC-CD63 and PE-CCR3) to each tube; • Mix gently, cover the tubes and incubate for 15 minutes at 37° C. in a water bath. […]
Percent CD63 positive cells within the gated basophil population were determined in different treatment groups and normalized to vehicle control.

GI50 ([1]; MOLT-4, Jurkat, CCRF-CEM, Hut-78 and HuT-102, MTT, 72 hours, range over the cell lines, read-out: GI50, reduction in T-lymphoma cell viability): 2500 to 12800 nM
EC50 [4]: 347 nM
EC50 (PI3Kδ): < 30 nM
Structure (SMILES): COc1ccc(-c2nn([C@@H](C)c3oc4cccc(F)c4c(=O)c3-c3cccc(F)c3)c3ncnc(N)c23)cc1NS(C)(=O)=O [Compound A1, (S)—N-(5-(4-amino-1-(1-(5-fluoro-3-(3-fluorophenyl)-4-oxo-4H-chromen-2-yl)ethyl)-1H-pyrazolo[3,4-d]pyrimidin-3-yl)-2-methoxyphenyl)methanesulfonamide]
cytotoxicity over the 72 hour incubation period ([1]; T-lymphoma cell lines, 72 hour incubation): did not display any apparent cytotoxicity
EC50 [2]: 118 nM
EC50 [3]: 128 nM
back skin thickness (male Balb/c mice): reduced
erythema (male Balb/c mice): reduced
scaling (male Balb/c mice): reduced
